Experimental data from ChEMBL document CHEMBL1201862, “PubChem BioAssay data set” (2004).
The source made the active and inactive calls.

Assays:
[1] = target: T1, Polyadenylate-binding protein 1 (Homo sapiens, UniProt P11940); experiment: PABP1 MLLE–PAM2 binding inhibitor potency, dose response, biochemical, fluorescence polarization, FITC-PAM2 peptide (AID 602259); type: functional; settings: read-out: IC50_Mean
[2] = target: T1, Polyadenylate-binding protein 1; experiment: PABP1 MLLE–PAM2 interaction inhibitors, dose response, miRNA deadenylation inhibitor project, biochemical, fluorescence polarization, Cy5-PAM2 peptide, secondary (AID 602260); type: functional; settings: read-out: IC50_Mean
[3] = target: T2, Protein Rev (Human immunodeficiency virus type 1 group M subtype B (isolate HXB2)(HIV-1), UniProt P04618); experiment: inhibitors of Rev binding to RRE RNA, dose response, biochemical, fluorescence polarization, HIV-1 (AID 434976); set-up: species or system Human immunodeficiency virus 1
T2 sequence (P04618 whole entry): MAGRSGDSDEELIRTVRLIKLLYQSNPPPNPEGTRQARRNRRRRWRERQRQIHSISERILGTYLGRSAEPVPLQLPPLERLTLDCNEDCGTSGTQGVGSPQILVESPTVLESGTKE

[4] = target: T3, Female germline-specific tumor suppressor gld-1 (Caenorhabditis elegans, UniProt Q17339); experiment: inhibitors of GLD-1 binding to TGE RNA, dose response, biochemical, fluorescence polarization, C. elegans (AID 2802);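 note: fluorescence polarization of labeled TGE RNA bound by purified gld-1 protein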
T3 sequence (Q17339 whole entry): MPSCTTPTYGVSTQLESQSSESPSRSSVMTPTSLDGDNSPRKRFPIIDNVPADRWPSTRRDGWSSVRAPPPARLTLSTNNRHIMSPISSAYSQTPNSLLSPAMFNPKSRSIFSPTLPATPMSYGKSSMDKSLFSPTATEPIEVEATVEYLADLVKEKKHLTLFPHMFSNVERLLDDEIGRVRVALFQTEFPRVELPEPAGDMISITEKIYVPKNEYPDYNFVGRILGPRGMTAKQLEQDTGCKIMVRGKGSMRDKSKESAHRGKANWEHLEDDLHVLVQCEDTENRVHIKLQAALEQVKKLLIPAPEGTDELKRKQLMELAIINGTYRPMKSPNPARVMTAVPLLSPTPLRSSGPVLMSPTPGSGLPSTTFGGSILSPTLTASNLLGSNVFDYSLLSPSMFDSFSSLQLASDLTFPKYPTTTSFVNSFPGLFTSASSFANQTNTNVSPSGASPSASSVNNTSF

[5] = target: Cytochrome P450 2C9 (Homo sapiens, UniProt P11712)
Sequence of Cytochrome P450 2C9 (P11712 whole entry): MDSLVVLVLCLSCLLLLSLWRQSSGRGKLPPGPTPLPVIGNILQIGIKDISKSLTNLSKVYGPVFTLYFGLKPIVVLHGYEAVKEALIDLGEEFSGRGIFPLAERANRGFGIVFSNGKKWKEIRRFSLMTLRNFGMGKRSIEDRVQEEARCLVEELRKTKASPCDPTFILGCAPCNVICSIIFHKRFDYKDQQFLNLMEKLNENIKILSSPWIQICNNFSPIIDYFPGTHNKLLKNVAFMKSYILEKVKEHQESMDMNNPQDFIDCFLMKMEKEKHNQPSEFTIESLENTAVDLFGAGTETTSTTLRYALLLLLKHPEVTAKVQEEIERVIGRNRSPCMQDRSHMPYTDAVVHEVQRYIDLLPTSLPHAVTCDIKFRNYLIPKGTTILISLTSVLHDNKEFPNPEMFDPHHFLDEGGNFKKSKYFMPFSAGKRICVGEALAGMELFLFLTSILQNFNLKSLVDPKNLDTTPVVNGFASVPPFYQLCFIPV

[6] = target: T4, X-box-binding protein 1 (Homo sapiens, UniProt P17861); type: functional, Cricetulus griseus;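 note: confirmatory dose-response counter-screen serving a CHOP assay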
T4 sequence (P17861 whole entry): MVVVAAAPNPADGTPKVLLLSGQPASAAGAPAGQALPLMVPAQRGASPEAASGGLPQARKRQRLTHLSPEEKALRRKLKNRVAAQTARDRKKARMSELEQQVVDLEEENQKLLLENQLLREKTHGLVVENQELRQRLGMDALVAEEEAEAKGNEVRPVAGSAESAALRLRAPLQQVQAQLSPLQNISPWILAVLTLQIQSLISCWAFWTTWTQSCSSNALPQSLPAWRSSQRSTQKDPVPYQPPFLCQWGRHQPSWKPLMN

[7] = target: DNA damage-inducible transcript 3 protein (Mus musculus, UniProt P35639); type: functional, Cricetulus griseus
Sequence of DNA damage-inducible transcript 3 protein (P35639 whole entry): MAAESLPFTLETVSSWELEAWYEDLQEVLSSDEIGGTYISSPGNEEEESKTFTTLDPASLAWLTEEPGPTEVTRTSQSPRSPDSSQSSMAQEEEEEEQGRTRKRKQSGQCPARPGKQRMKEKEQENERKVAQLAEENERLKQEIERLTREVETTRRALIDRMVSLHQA

[8] = target: T5, Cytochrome P450 1A2 (Homo sapiens, UniProt P05177);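 note: PubChem cytochrome P450 panel assay, CYP1A2 panel member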
T5 sequence (P05177 whole entry): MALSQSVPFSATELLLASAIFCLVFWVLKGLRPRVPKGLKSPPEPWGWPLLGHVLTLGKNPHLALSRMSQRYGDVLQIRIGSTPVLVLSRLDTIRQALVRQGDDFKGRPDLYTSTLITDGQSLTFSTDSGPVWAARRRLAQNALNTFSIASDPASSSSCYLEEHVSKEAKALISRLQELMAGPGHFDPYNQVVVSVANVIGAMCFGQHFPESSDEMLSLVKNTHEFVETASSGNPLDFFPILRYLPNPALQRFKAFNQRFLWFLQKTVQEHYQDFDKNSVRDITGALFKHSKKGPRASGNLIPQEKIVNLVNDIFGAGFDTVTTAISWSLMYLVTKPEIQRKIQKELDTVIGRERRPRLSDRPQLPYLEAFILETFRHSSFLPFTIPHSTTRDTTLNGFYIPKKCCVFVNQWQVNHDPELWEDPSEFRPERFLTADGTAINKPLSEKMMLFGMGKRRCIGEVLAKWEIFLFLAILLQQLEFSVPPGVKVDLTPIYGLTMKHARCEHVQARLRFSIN

[9] = target: Beta-galactosidase (Escherichia coli, UniProt Q8VNN2); type: functional
Sequence of Beta-galactosidase (Q8VNN2 whole entry): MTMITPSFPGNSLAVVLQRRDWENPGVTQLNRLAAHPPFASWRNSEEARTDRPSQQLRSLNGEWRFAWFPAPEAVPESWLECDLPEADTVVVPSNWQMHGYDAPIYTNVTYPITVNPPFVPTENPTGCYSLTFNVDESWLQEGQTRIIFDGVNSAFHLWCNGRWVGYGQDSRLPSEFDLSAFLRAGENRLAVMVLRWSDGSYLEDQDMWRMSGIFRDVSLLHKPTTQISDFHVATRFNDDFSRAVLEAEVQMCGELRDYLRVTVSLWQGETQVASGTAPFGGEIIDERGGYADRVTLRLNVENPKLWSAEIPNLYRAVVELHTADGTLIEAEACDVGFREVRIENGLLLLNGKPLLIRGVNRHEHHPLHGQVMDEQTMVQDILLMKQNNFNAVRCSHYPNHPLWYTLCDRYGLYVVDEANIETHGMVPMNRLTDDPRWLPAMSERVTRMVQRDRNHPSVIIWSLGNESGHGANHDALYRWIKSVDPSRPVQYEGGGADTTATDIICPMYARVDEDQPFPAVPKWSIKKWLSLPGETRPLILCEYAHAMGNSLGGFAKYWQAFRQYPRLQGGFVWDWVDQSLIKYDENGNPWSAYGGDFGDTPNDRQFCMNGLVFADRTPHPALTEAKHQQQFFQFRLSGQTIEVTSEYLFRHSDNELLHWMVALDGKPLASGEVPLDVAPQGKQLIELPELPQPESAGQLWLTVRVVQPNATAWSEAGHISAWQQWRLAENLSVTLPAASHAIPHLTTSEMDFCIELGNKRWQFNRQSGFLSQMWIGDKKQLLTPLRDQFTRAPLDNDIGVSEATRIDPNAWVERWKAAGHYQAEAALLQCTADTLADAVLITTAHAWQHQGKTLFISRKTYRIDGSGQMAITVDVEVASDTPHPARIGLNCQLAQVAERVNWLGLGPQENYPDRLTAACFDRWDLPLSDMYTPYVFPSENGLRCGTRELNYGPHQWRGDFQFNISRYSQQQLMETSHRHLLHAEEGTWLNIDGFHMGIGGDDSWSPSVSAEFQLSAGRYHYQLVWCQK

[10] = target: T6, Kappa-type opioid receptor (Homo sapiens, UniProt P41145); type: functional
T6 sequence (P41145 whole entry): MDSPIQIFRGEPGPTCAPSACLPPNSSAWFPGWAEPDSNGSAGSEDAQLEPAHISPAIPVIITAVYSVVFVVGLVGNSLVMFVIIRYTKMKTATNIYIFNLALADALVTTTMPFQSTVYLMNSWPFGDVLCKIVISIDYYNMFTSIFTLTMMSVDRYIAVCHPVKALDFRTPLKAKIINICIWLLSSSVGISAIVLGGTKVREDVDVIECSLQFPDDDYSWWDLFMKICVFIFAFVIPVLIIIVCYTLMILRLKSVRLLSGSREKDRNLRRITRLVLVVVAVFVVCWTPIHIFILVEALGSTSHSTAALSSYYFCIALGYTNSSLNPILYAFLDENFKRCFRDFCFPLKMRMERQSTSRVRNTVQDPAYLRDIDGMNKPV

[11] = target: Heat shock protein HSP 90-alpha (Homo sapiens, UniProt P07900); type: functional, organism-based
[12] = target: T6, Kappa-type opioid receptor; type: functional; remark: listed apart in the source
[13] = target: T7, Corticotropin-releasing factor receptor 2/Corticotropin-releasing factor-binding protein (Homo sapiens, UniProt P24387+Q13324); experiment: Dose Response confirmation of uHTS hits for small molecule antagonists of the CRF-binding protein and CRF-R2 receptor complex.; type: functional; settings: read-out: IC50_Mean
T7 sequence (Q13324 whole entry): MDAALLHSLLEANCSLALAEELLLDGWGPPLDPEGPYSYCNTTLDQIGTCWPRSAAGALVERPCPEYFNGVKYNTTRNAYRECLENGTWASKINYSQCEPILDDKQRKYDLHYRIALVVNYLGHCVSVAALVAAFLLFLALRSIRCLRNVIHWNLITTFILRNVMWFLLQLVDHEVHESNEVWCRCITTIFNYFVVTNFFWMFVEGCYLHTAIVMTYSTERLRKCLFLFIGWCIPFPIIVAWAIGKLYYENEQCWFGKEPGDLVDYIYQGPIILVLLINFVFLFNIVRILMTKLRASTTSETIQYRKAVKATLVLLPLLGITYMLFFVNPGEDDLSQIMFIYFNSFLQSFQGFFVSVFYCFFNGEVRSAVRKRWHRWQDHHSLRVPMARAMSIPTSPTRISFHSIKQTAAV
T7 sequence (P24387 whole entry): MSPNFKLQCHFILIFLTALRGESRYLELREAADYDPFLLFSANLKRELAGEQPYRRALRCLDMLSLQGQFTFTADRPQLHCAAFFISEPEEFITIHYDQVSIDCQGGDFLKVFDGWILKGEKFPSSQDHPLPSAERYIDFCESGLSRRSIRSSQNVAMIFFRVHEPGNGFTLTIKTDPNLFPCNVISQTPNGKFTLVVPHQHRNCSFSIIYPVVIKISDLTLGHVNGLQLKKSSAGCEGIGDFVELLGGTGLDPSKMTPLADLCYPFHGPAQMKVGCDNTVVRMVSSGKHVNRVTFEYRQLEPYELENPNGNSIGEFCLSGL

[14] = target: Nucleotide-binding oligomerization domain-containing protein 2 (Homo sapiens, UniProt Q9HC29); experiment: NOD2 signaling inhibitors, cell-based, luminescence, uHTS, HEK293 (AID 1566); type: functional
Sequence of Nucleotide-binding oligomerization domain-containing protein 2 (Q9HC29 whole entry, the tested form may be a part): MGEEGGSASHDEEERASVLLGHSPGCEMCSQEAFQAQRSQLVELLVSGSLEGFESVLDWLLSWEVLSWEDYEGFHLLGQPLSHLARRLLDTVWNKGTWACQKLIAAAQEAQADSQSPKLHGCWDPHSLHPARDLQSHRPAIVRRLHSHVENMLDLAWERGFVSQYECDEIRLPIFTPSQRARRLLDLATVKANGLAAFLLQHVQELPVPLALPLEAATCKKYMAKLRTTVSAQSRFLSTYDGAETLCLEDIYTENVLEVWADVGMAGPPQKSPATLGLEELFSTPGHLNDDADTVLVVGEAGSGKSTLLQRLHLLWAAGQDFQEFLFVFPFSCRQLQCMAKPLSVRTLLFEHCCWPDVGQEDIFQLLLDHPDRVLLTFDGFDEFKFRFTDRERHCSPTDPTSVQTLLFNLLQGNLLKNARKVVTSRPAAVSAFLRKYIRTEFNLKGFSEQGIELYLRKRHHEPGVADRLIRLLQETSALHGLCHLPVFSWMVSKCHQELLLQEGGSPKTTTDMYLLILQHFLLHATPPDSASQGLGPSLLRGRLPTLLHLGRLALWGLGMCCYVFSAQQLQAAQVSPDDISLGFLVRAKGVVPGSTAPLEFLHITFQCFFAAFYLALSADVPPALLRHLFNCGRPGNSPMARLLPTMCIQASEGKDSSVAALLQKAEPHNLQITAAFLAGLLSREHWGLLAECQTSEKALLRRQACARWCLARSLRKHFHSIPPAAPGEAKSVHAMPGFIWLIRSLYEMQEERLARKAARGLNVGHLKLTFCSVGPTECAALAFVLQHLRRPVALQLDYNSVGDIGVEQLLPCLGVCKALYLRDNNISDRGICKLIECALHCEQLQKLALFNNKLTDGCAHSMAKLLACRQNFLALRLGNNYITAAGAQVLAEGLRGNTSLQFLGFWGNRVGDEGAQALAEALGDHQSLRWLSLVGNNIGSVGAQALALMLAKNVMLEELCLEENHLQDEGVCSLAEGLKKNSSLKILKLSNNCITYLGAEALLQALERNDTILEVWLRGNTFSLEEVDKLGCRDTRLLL

[15] = system: HEK293; experiment: cells; type: functional, cell-based; settings: Homo sapiens
[16] = system: HEK293; experiment: NOD1 signaling inhibitors, primary screen, cell-based, luminescence, uHTS (AID 1578); type: functional; settings: Homo sapiens
[17] = system: HEK293; experiment: cells; type: functional, cell-based; settings: Homo sapiens; remark: listed apart in the source
[18] = system: HEK293; experiment: NOD2 signaling inhibitors in MDP-stimulated cells, cell-based, uHTS, luminescence (AID 2001); type: functional; settings: Homo sapiens
[19] = target: T7, Corticotropin-releasing factor receptor 2/Corticotropin-releasing factor-binding protein; experiment: activators of CRF receptor 2 with binding protein – uHTS hits, confirmation (AID 602473); type: functional; settings: read-out: EC50_Mean
[20] = system: HEK293; experiment: cells; type: functional, cell-based; settings: Homo sapiens; remark: listed apart in the source
[21] = target: T8, Calpain-2 catalytic subunit (Sus scrofa, UniProt P43367); experiment: pig calpain II inhibitor potency, dose response, biochemical, fluorogenic peptide substrate (AID 1420); type: functional
T8 sequence (P43367 whole entry): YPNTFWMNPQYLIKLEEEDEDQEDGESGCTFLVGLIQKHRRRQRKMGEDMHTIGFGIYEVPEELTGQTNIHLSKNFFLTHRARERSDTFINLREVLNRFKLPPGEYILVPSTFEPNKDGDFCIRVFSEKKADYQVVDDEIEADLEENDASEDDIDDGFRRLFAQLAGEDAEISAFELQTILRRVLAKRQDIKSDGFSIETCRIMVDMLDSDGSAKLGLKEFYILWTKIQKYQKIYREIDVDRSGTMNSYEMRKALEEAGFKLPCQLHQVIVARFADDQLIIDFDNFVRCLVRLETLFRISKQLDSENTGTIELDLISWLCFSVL

T1 sequence (P11940 whole entry): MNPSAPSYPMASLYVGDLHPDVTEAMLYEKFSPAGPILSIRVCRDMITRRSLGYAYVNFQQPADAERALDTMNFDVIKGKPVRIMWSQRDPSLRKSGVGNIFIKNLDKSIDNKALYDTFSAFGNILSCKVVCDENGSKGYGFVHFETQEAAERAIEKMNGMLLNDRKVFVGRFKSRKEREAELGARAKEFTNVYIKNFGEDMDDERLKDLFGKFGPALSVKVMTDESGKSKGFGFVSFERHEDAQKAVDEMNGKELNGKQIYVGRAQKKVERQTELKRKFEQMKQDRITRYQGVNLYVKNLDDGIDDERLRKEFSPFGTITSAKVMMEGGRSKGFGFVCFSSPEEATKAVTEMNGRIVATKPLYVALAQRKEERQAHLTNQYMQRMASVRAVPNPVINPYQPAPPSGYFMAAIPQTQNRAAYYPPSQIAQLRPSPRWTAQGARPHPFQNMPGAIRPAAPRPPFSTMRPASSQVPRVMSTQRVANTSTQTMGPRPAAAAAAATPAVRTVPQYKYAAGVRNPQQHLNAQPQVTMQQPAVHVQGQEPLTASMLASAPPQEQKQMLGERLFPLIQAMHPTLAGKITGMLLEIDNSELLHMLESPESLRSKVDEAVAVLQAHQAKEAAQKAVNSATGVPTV

Row | SMILES | IC50 [1] | IC50 [2] | IC50 [3] | IC50 [4] | EC50 [14] | IC50 [15] | EC50 [16] | IC50 [17] | IC50 [18] | IC50 [20] | also measured
1 | CC(=O)Nc1ccc2nc3ccccc3nc2c1 | 44.9 µM (inactive) | > 66 µM (inactive) | 14.8 µM (not active) | 5.86 µM (active) |  |  |  |  |  |  | 
2 | Cc1ccc(-c2nn(C)c(=O)c3ccccc23)cc1CNC(=O)Cn1nc(-c2ccccc2)c2ccccc2c1=O |  |  |  |  |  |  |  |  |  |  | AC50 [5]: 11.2 µM (inconclusive); Absolute IC50 (XBP1) [6]: 10 µM; Absolute IC50 (CHOP) [7]: 10 µM; AC50 [8]: 31.6 µM (inconclusive)
3 | O=C(C#Cc1ccccc1)c1ccc([N+](=O)[O-])cc1 |  |  |  |  |  |  |  |  |  |  | EC50 [9]: > 31.5 µM (inactive); IC50 [10]: 16.3 µM; AC50 [11]: 1.38 µM (active); IC50 [12]: 9.68 µM (active)
4 | Cc1nc2ccc(NS(=O)(=O)c3ccc(C)c(C)c3)cc2s1 |  |  |  |  | 9.53 µM (active) | > 20 µM (inactive) | 3.65 µM (active) | > 20 µM (inactive) | 10.4 µM (inactive) | 10.9 µM (active) | IC50 [13]: > 47.1 µM (inactive); EC50 [19]: > 53 µM (inactive)
5 | CCc1ccc(C(=O)OCC(=O)c2c(N)n(CC(C)C)c(=O)n(C)c2=O)cc1 |  |  |  |  | > 20 µM (inactive) | > 20 µM (inactive) | 12.4 µM (active) | 13.8 µM (active) | 15.6 µM (inactive) | 8.39 µM (active) | IC50 [21]: 2.96 µM (not active)
6 | Cc1ccccc1NC(=N)Nc1ccccc1C | 19.8 µM (active) | > 66 µM (inactive) | 8.31 µM (active) | 5.2 µM (active) |  |  |  |  |  |  | 
